Measured values from patent publication US10806798B2, “Compound with effects of thrombolysis, free radical scavenging and thrombus-targeting” (Shanghai Lumosa Therapeutics Co., Ltd., priority 2012, dated 2020).

Experiments:
rats with stroke [1] = experiment: Immediate treatment after stroke onset with different dosages of Ie (Zealonga scores); assay type: in vivo, SD rats
Procedure: A 10% chloral hydrate solution (400 mg/kg) was injected intraperitoneally into male SD rats (250 to 300 g) for anesthesia. An incision of about 2 cm in length was longitudinally made slightly on the right to the center of the neck, and the right carotid common artery, carotid external artery and carotid internal artery were dissected along the margin of the inner side of sternocleidomastoid muscles. The open incision in the carotid internal artery and the proximal end of the common carotid artery were occluded respectively with noninvasive arterial clips. A small incision was made on the carotid external artery, and the distal end of the carotid external artery was ligated. The arterial clip at the proximal end of the carotid external artery was released, and 10 μl blood was drawn before the proximal end of the common carotid artery was again occluded with a noninvasive arterial clip. The 10 μl blood drawn was placed in a 1 mL EP vial and kept at RT for 30 min until coagulation of blood, and then transferred into a −20° C. refrigerator for 1 h to allow solid coagulation. After 1 h, the blood clots were taken out, added into 1 mL saline, and then broken into relatively uniform microthrombus by using a steel spatula. The microthrombus suspension was then transferred into a 1 mL injector until use. At the same time when the clip on the carotid internal artery of the rat was released, the 1 mL thrombus suspension in the injector was slowly injected from the carotid external artery of the rat to its proximal end, and then was injected into the brain of the rat through the carotid internal artery. Subsequently, the proximal end of the carotid external artery was ligated, the arterial clips on the carotid internal artery and the carotid common artery were released, and blood flow was restored. Injection of urokinase in normal saline (positive control group, at a dosage of 20000 IU/kg), tPA in normal saline (positive control group, at a dosage of 3 mg/kg), normal saline (blank control group, at a dosage of 3 mL/kg), or compound Ie in normal saline (at a dosage of 1 μmol/kg, 0.1 μmol/kg or 0.01 μmol/kg) was carried out. 24 h after the rats were awake, the degree of damage in neural function was evaluated by the Zealonga method. A score of 0 indicated no sign of loss in neural function, 1 indicated the front limbs on the undamaged side could not stretch out, 2 indicated walking toward the undamaged side, 3 indicated tail-chasing walking in circles toward the undamaged side, 4 indicated involuntary walking with disturbance of consciousness, and 5 indicated death. As shown in the results, in rats receiving immediate treatment after the onset of stroke with […] compound Ie, the percentage of rats with a neural function score of 0 was 60%, 30%, and 0%, respectively; and the percentage of rats with a neural function score of 1 was 20%, 30%, and 10%, respectively.

rats with stroke [2] = experiment: Successive treatments starting 4 h after the onset of stroke (Zealonga scores); assay type: in vivo, SD rats; conditions: for number of rats scored Score 0 / number of rats scored Score 1 / number of rats scored Score 2: urokinase 20000 IU/kg once per day from 4 h after stroke onset, n=6
Procedure: The efficacy was represented by neural function scores, and a lower score indicates higher efficacy. A 10% chloral hydrate solution was injected intraperitoneally into male SD rats at a dosage of 400 mg/kg body weight for anesthesia. A longitudinal incision was made at the center of the neck, and the right carotid common artery trunk was dissected (about 3 cm in length). Carotid external artery branches were each dissected and ligated at the hyoid level, and the carotid internal artery was dissected at the swollen part of the neck. The open incision in the carotid internal artery and the proximal end of the common carotid artery were occluded respectively with noninvasive arterial clips, and the distal end of the carotid external artery was ligated. A catheter containing 0.5 mL thrombus suspension in normal saline was inserted in the carotid external artery trunk. At the same time when the clip on the carotid internal artery was released, the 0.5 mL thrombus suspension in normal saline in the catheter slowly flew from the carotid external artery to its proximal end, and then was injected into the arteries in brain through the carotid internal artery. Subsequently, the proximal end of the carotid artery was ligated, the arterial clips on the carotid internal artery and the common carotid artery were released, and blood flow was restored. After the wound was stitched up, 20,000 IU penicillin was intramuscularly injected for prevention from infection. After 4 h, compound Ie in normal saline (at a dosage of 1 μmol/kg, n=1), urokinase in normal saline (at a dosage of 20000 IU/kg, n=6) or tPA in normal saline (at a dosage of 3 mg/kg, n=6) was infused through the tail vein. Infusion of compound Ie in normal saline through rat tail vein was carried out once per day for 6 consecutive days, observed for 7 days. The rats were compared to themselves each day, and evaluated for degree of damage in neural function by the Zealonga method. Alternatively, infusion of urokinase in normal saline through rat tail vein was carried out once per day for two consecutive days, the rats were compared to themselves each day, and evaluated for the degree of damage in neural function by the Zealonga method. Alternatively, infusion of tPA in normal saline through rat tail vein was carried out once per day for two consecutive days, the rats were compared to themselves each day, and evaluated for the degree of damage in neural function by the Zealonga method. A score of 0 indicated no sign of loss in neural function, 1 indicated the front limbs on the undamaged side could not stretch out, 2 indicated walking toward the undamaged side, 3 indicated tail-chasing walking in circles toward the undamaged side, 4 indicated involuntary walking with disturbance of consciousness, and 5 indicated death.

urokinase
percentage of rats with a neural function score of 0 (rats with stroke [1]; 20000 IU/kg urokinase): 10% | percentage of rats with a neural function score of 1 (rats with stroke [1]; 20000 IU/kg urokinase): 50% | number of rats scored Score 0 (rats with stroke [1]; urokinase 20000 IU/kg, n = 10): 1 | number of rats scored Score 1 (rats with stroke [1]; urokinase 20000 IU/kg, n = 10): 5 | number of rats scored Score 2 (rats with stroke [1]; urokinase 20000 IU/kg, n = 10): 0 | number of rats scored Score 3 (rats with stroke [1]; urokinase 20000 IU/kg, n = 10): 3 | number of rats scored Score 4 (rats with stroke [1]; urokinase 20000 IU/kg, n = 10): 1 | number of rats scored Score 5 (rats with stroke [1]; urokinase 20000 IU/kg, n = 10): 0 | number of rats scored Score 0 (rats with stroke [2]; Day 1): 2 rats | number of rats scored Score 1 (rats with stroke [2]; Day 1): 3 rats | number of rats scored Score 2 (rats with stroke [2]; Day 1): 1 rat rats | number of rats scored Score 0 (rats with stroke [2]; Day 2): 3 rats | number of rats scored Score 1 (rats with stroke [2]; Day 2): 1 rat^ rats | number of rats scored Score 2 (rats with stroke [2]; Day 2): 1 rat rats | rats died (rats with stroke [2]; out of 6 rats, within 48 h, urokinase 20000 IU/kg each day from 4 h after stroke onset): 2 | autopsy on the dead rats (rats with stroke [2]; urokinase 20000 IU/kg each day from 4 h after stroke onset): hemorrhage in internal organs, particularly severe hemorrhage in lungs
